In ChEMBL document CHEMBL5316285 (J Med Chem, 2023):
Activity calls are given as the source filed them. The calls are words filed in the database; no cut-off is given here.

Experiments:
[1] = molecular target: T1, von Hippel-Lindau disease tumor suppressor/Nicotinamide phosphoribosyltransferase (Homo sapiens, UniProt P43490+P40337); test: Protac activity at VHL/NAMPT in human A2780 cells assessed as reduction of NAMPT protein level at 10 nM measured after 24 hrs by Western blotting analysis; assay type: cell-based
Target sequence in this assay (P40337 whole entry, looked up): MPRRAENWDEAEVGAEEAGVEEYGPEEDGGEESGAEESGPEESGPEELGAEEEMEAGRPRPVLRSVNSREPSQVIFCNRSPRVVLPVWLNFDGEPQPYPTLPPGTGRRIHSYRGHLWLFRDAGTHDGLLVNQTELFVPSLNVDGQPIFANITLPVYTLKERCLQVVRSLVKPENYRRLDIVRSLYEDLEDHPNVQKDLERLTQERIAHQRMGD
Target sequence in this assay (P43490 whole entry, looked up): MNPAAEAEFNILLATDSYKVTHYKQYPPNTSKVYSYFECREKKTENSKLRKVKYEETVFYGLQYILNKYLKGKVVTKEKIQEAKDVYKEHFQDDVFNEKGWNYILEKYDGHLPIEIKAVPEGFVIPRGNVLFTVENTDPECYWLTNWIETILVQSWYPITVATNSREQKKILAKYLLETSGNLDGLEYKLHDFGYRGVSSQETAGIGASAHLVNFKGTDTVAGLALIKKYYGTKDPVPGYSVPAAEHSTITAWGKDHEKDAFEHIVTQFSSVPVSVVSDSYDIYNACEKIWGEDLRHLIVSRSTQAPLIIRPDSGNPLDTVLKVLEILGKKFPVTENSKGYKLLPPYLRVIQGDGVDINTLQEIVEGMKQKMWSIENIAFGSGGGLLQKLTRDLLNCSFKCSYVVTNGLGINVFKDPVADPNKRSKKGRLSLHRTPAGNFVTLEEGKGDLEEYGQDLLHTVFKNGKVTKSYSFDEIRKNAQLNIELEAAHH

[2] = molecular target: T1, von Hippel-Lindau disease tumor suppressor/Nicotinamide phosphoribosyltransferase; test: Protac activity at VHL/NAMPT in human A2780 cells assessed as induction of NAMPT degradation measured at 0.005 to 10 microM after 24 hrs by Western blotting analysis; assay type: cell-based; details: dose 0.005-10 µM
Target sequence in this assay (P40337 whole entry, looked up): as the sequence (P40337 whole entry, looked up) above
Target sequence in this assay (P43490 whole entry, looked up): as the sequence (P43490 whole entry, looked up) above

A2780 [3] = test: Antiproliferative activity against human A2780 cells incubated for 72 hrs in carbon-dioxide atmosphere measured by cell counting kit-8 method; assay type: functional, cell-based; details: A2780, 72 h
[4] = molecular target: Nicotinamide phosphoribosyltransferase (Homo sapiens, UniProt P43490); test: Inhibition of NAMPT (unknown origin) using NAM as substrate preincubated for 5 mins followed by substrate addition measured after 15 mins in presence of ATP by fluorescence based microplate reader analysis
[5] = molecular target: T1, von Hippel-Lindau disease tumor suppressor/Nicotinamide phosphoribosyltransferase; test: Protac activity at VHL/NAMPT in human A2780 cells assessed as degradation of NAMPT using NAM as substrate preincubated for 5 mins followed by substrate addition measured after 5 mins in presence of ATP by luminesence based microplate reader analysis; assay type: cell-based
Target sequence in this assay (P43490 whole entry): as the sequence (P43490 whole entry, looked up) above
Target sequence in this assay (P40337 whole entry): as the sequence (P40337 whole entry, looked up) above

CT26 = test: Antiproliferative activity against mouse CT26 cells; assay type: functional, cell-based
[6] = Retinal toxicity in nude mouse xenografted with human A2780 cells at 2 uM/Kg, IV once every 3 days upto 21 days by microscopic analysis; details: 504 h, time 21 day
A2780 [7] = test: Antitumor activity against human A2780 cells xenografted in nude mouse assessed as tumor growth inhibition at 2 uM/Kg, IV once every 3 days upto 21 days relative to control; assay type: functional; details: time 21 day, at 2 µmol/kg
[8] = molecular target: T1, von Hippel-Lindau disease tumor suppressor/Nicotinamide phosphoribosyltransferase; test: Protac activity at VHL/NAMPT in human A2780 cells assessed as induction of NAMPT degradation measured at 0.2 to 500 nM after 24 hrs by Western blotting analysis; assay type: cell-based; details: dose 0.2-500 nM
Target sequence in this assay (P40337 whole entry, looked up): as above
Target sequence in this assay (P43490 whole entry, looked up): as the sequence (P43490 whole entry, looked up) above

[9] = molecular target: T1, von Hippel-Lindau disease tumor suppressor/Nicotinamide phosphoribosyltransferase; test: Protac activity at VHL/NAMPT in human A2780 cells assessed as induction of NAMPT degradation measured at 500 to 5000 nM after 24 hrs by Western blotting analysis; assay type: cell-based; details: dose 500-5000 nM
Target sequence in this assay (P40337 whole entry, looked up): as the sequence (P40337 whole entry, looked up) above
Target sequence in this assay (P43490 whole entry, looked up): as the sequence (P43490 whole entry, looked up) above

[10] = molecular target: T1, von Hippel-Lindau disease tumor suppressor/Nicotinamide phosphoribosyltransferase; test: Protac activity at VHL/NAMPT in human A2780 cells assessed as induction of NAMPT degradation measured at 5 to 50 nM after 24 hrs by Western blotting analysis; assay type: cell-based; details: dose 5-50 nM
Target sequence in this assay (P40337 whole entry, looked up): as the sequence (P40337 whole entry, looked up) above
Target sequence in this assay (P43490 whole entry, looked up): as the sequence (P43490 whole entry, looked up) above

[11] = molecular target: T1, von Hippel-Lindau disease tumor suppressor/Nicotinamide phosphoribosyltransferase; test: Protac activity at VHL/NAMPT in human A2780 cells assessed as reduction of NAMPT protein level at 0.1 to 100 nM measured after 24 hrs by Western blotting analysis; assay type: cell-based; details: dose 0.1-100 nM
Target sequence in this assay (P40337 whole entry, looked up): as the sequence (P40337 whole entry, looked up) above
Target sequence in this assay (P43490 whole entry, looked up): as the sequence (P43490 whole entry, looked up) above

[12] = Toxicity in nude mouse xenografted with human A2780 cells assessed as loss in body weight at 2 uM/Kg, IV once every 3 days upto 21 days; details: 504 h, time 21 day
[13] = Toxicity in nude mouse xenografted with human A2780 cells assessed as pathological damage in lung at 2 uM/Kg, IV once every 3 days upto 21 days by hematoxylin and eosin staining analysis; assay type: tissue-based; details: 504 h, time 21 day
[14] = Toxicity in nude mouse xenografted with human A2780 cells assessed as pathological damage in kidney at 2 uM/Kg, IV once every 3 days upto 21 days by hematoxylin and eosin staining analysis; assay type: tissue-based; details: 504 h, time 21 day

Nicotinamide phosphoribosyltransferase, sequence (P43490 whole entry): as the sequence (P43490 whole entry, looked up) above

Compound	IC50 (A2780 [3]) [µM]	IC50 [4] [µM]	DC50 [5] [µM]	other results
Cc1ncsc1-c1ccc([C@H](C)NC(=O)[C@@H]2C[C@@H](O)CN2C(=O)[C@@H](NC(=O)COCCn2cc(CCN3CCN(S(=O)(=O)c4ccc(NC(=O)NCc5cccnc5)cc4)CC3)nn2)C(C)(C)C)cc1	0.433	0.12	0.05	Activity [9]: Active; Activity [10]: inactive
Cc1ncsc1-c1ccc([C@H](C)NC(=O)[C@@H]2C[C@@H](O)CN2C(=O)[C@@H](NC(=O)COCCOCCn2cc(CCN3CCN(S(=O)(=O)c4ccc(NC(=O)NCc5cccnc5)cc4)CC3)nn2)C(C)(C)C)cc1	0.737	0.19	0.05	Activity [9]: Active; Activity [10]: inactive
Cc1ncsc1-c1ccc([C@H](C)NC(=O)[C@@H]2C[C@@H](O)CN2C(=O)[C@@H](NC(=O)COCCN2CCN(S(=O)(=O)c3ccc(NC(=O)NCc4cccnc4)cc3)CC2)C(C)(C)C)cc1	5.51	0.16	> 0.1	Activity [11]: inactive
Cc1ncsc1-c1ccc([C@H](C)NC(=O)[C@@H]2C[C@@H](O)CN2C(=O)[C@@H](NC(=O)COCCOCCOCCn2cc(CCN3CCN(S(=O)(=O)c4ccc(NC(=O)NCc5cccnc5)cc4)CC3)nn2)C(C)(C)C)cc1	0.487	0.094	0.05	Activity [9]: Active; Activity [10]: inactive
Cc1ncsc1-c1ccc([C@H](C)NC(=O)[C@@H]2C[C@@H](O)CN2C(=O)[C@@H](NC(=O)COCCOCCOCCOCCOCCn2cc(CCN3CCN(S(=O)(=O)c4ccc(NC(=O)NCc5cccnc5)cc4)CC3)nn2)C(C)(C)C)cc1	0.477	0.97	0.05	Activity [9]: Active; Activity [10]: inactive
Cc1ncsc1-c1ccc([C@H](C)NC(=O)[C@H]2C[C@H](O)CN2C(=O)[C@@H](NC(=O)CCCCCCCCN2CCN(S(=O)(=O)c3ccc(NC(=O)NCc4cccnc4)cc3)CC2)C(C)(C)C)cc1	0.707	0.11	> 10	
CC(=O)N[C@H](C(=O)N1C[C@H](O)C[C@H]1C(=O)N[C@@H](C)c1ccc(-c2scnc2C)cc1)C(C)(C)C	> 100	> 2		
Cc1ncsc1-c1ccc([C@H](C)NC(=O)[C@@H]2C[C@@H](O)CN2C(=O)[C@@H](NC(=O)COCCOCCOCCOCCn2cc(CCN3CCN(S(=O)(=O)c4ccc(NC(=O)NCc5cccnc5)cc4)CC3)nn2)C(C)(C)C)cc1	0.401	0.083	0.05	Activity [9]: Active; Activity [10]: inactive
Cc1ncsc1-c1ccc([C@H](C)NC(=O)[C@@H]2C[C@@H](O)CN2C(=O)[C@@H](NC(=O)COCCOCCN2CCN(S(=O)(=O)c3ccc(NC(=O)NCc4cccnc4)cc3)CC2)C(C)(C)C)cc1	1.23	0.15	> 0.1	Activity [11]: inactive

Stronger by IC50 (A2780 [3]), values ahead:

IC50 (A2780 [3]) [µM]	IC50 [4] [µM]	DC50 [5] [µM]	Compound	other results
0.173	0.13	0.019	Cc1ncsc1-c1ccc([C@H](C)NC(=O)[C@@H]2C[C@@H](O)CN2C(=O)[C@@H](NC(=O)COCCOCCOCCOCCN2CCN(S(=O)(=O)c3ccc(NC(=O)NCc4cccnc4)cc3)CC2)C(C)(C)C)cc1	Activity [8]: Dose-Dependent Effect
0.133	0.19	0.022	Cc1ncsc1-c1ccc([C@H](C)NC(=O)[C@@H]2C[C@@H](O)CN2C(=O)[C@@H](NC(=O)COCCOCCOCCOCCOCCN2CCN(S(=O)(=O)c3ccc(NC(=O)NCc4cccnc4)cc3)CC2)C(C)(C)C)cc1	Activity [8]: Dose-Dependent Effect
0.13			O=S(=O)(c1ccc(NC(=S)NCc2cccnc2)cc1)N1CCCCC1	IC50 (CT26): 4.6 µM; Activity [6]: Non-Toxic; TGI (A2780 [7]): 49.8%
0.096	0.12	> 10	Cc1ncsc1-c1ccc([C@H](C)NC(=O)[C@@H]2C[C@@H](O)CN2C(=O)[C@@H](NC(=O)CCCCCCN2CCN(S(=O)(=O)c3ccc(NC(=O)NCc4cccnc4)cc3)CC2)C(C)(C)C)cc1	
0.056	0.13	0.093	Cc1ncsc1-c1ccc([C@H](C)NC(=O)[C@@H]2C[C@@H](O)CN2C(=O)[C@@H](NC(=O)COCCOCCOCCN2CCN(S(=O)(=O)c3ccc(NC(=O)NCc4cccnc4)cc3)CC2)C(C)(C)C)cc1	Activity [8]: Dose-Dependent Effect
0.03	0.23	< 0.0046	Cc1ncsc1-c1ccc([C@H](C)NC(=O)[C@@H]2C[C@@H](O)CN2C(=O)[C@@H](NC(=O)CCCCCCCCCCN2CCN(S(=O)(=O)c3ccc(NC(=O)NCc4cccnc4)cc3)CC2)C(C)(C)C)cc1	Activity [1]: Active; Activity [2]: Dose-Dependent Effect
0.03	0.31	0.0024	Cc1ncsc1-c1ccc([C@H](C)NC(=O)[C@@H]2C[C@@H](O)CN2C(=O)[C@@H](NC(=O)CCCCCCCCCCCN2CCN(S(=O)(=O)c3ccc(NC(=O)NCc4cccnc4)cc3)CC2)C(C)(C)C)cc1	Activity [1]: Active; Activity [2]: Dose-Dependent Effect
0.01	0.19	0.0015	Cc1ncsc1-c1ccc([C@H](C)NC(=O)[C@@H]2C[C@@H](O)CN2C(=O)[C@@H](NC(=O)CCCCCCCCCN2CCN(S(=O)(=O)c3ccc(NC(=O)NCc4cccnc4)cc3)CC2)C(C)(C)C)cc1	Activity [1]: Active; Activity [2]: Dose-Dependent Effect
0.0059	0.1	> 0.1	Cc1ncsc1-c1ccc([C@H](C)NC(=O)[C@@H]2C[C@@H](O)CN2C(=O)[C@@H](NC(=O)CCCCCCCN2CCN(S(=O)(=O)c3ccc(NC(=O)NCc4cccnc4)cc3)CC2)C(C)(C)C)cc1	
0.00028			O=C(/C=C/c1cccnc1)NCCCCC1CCN(C(=O)c2ccccc2)CC1 [DAPORINAD]	Activity [6]: Non-Toxic; Activity [12]: Toxic; Activity [13]: Toxic; TGI (A2780 [7]): 62.9%; Activity [14]: Toxic
